Test results as given in article PMC8209673 (Cell reports, 2021).
Like-named read-outs stand apart in the source and are kept apart here.

How the values were obtained:
[1] = test system: SOD1(A4V) ALS motor neurons; format: cell-based, human
SOD1(A4V) motor neurons [2] = assay: Multiple electrode array; format: cell-based, human; conditions: for SOD1(A4V) motor neuron excitability: DRD2/3 agonists, MEA (Figure 4C)
[3] = test system: differentiated human ALS motor neurons; assay: Fura-2 calcium response imaging; format: cell-based; conditions: fura-2 imaging
patients with ALS = conditions: small-scale clinical trial; ref Nagata et al., 2016; cited from earlier work
[4] = test system: human motor neurons carrying SOD1, C9ORF72, and FUS mutations; conditions: ref Wainger et al., 2014; cited from earlier work
[5] = test system: lower motor neuron hyperexcitability; conditions: two clinical trials; ref Kovalchuk et al., 2018; Wainger et al., 2021; cited from earlier work
SOD1(A4V) motor neurons [6] = assay: Patch clamp current-clamp recording of spontaneous firing; format: cell-based, human
DRD2 = conditions: ref McCall et al., 2005; cited from earlier work
DRD3 = conditions: cited from earlier work
[7] = calcium wave count normalized to the DMSO control (100.00)
[8] = activity normalized to the DMSO control (100.00)

Compound | GCaMP6 (%) spontaneous motor neuron activity [1, 7] | MEA (%) spontaneous motor neuron activity (SOD1(A4V) motor neurons [2]) | other results
CCn1c(=O)[nH]c2ccccc21 [1-Ebio (SB-423901)] | 103.33 ± 21.7% | 122.81 ± 27.8% | 
Cc1o[nH]c(=O)c1C[C@H](N)C(=O)O [AMPA] |  |  | calcium influx [3]: elicits a large calcium influx
Cc1cc(NC2CCCCC2)nc(-n2nc(C)cc2C)n1 [CyPPA (NS6277)] | 80.00 ± 27.4% | 12.72 ± 5.8% | 
O=C(Nc1cnc(Cl)nc1)c1ccc(F)c(F)c1 [ICA 069673] | 13.33 ± 13.9% | 0.07 ± 0.0% | 
O=C(Nc1ccc(Cl)nc1)c1ccc(F)c(F)c1 [ICA-27243] | 0.00 ± 0.0% |  | MEA (%) spontaneous motor neuron activity (SOD1(A4V) motor neurons [2]; [8]): 0.20 ± 0.1%
CN(C)C(=O)C(CCN1CCC(O)(c2ccc(Cl)cc2)CC1)(c1ccccc1)c1ccccc1 [Loperamide] |  | 0.02 ± 0.0% | GCaMP6 (%) spontaneous motor neuron activity [1]: 0.00± 0.0%
Cc1cc(C)c(NC(=O)C2CC3CCC2C3)c(C)c1 (stereo not shown) [ML213] | 0.00 ± 0.0% | 0.38 ± 0.4% | 
COc1ccc(Cl)cc1[C@]1(F)C(=O)Nc2cc(C(F)(F)F)ccc21 [Maxipost (BMS-204352)] | 36.67 ± 39.8% | 22.32 ± 1.1% | 
COCC(=O)O[C@]1(CCN(C)CCCc2nc3ccccc3[nH]2)CCc2cc(F)ccc2[C@@H]1C(C)C [Mibefradil] | 0.00 ± 0.0% | 0.02± 0.0% | 
O=C1Nc2c(ccc(Cl)c2Cl)C1=NO [NS309] | 110.00 ± 38.4% | 86.56 ± 14.4% | 
O=C1NC(=O)C(c2ccccc2)(c2ccccc2)N1 [Phenytoin] | 116.67 ± 56.5% |  | MEA (%) spontaneous motor neuron activity (SOD1(A4V) motor neurons [2]; [8]): 103.78 ± 41.1%
Nc1nc2c(ccc3ccccc32)s1 [SKA 31] | 123.33 ± 60.8% | 106.67 ± 44.4% | 
CC(C)C[C@H]1C(=O)N2CCC[C@H]2[C@]2(O)O[C@](NC(=O)[C@@H]3C=C4c5cccc6[nH]c(Br)c(c56)C[C@H]4N(C)C3)(C(C)C)C(=O)N12 [bromocriptine] |  |  | SOD1(A4V) motor neuron excitability (SOD1(A4V) motor neurons [2]): decreased SOD1(A4V) motor neuron excitability; motor function in patients with ALS (patients with ALS): sustained motor function
CCOC(=O)Nc1ccc(NCc2ccc(F)cc2)nc1N [flupirtine] |  |  | firing of human motor neurons [4]: block firing
CCOC(=O)Nc1ccc(NCc2ccc(F)cc2)cc1N [retigabine] |  |  | firing of human motor neurons [4]: block firing; lower motor neuron hyperexcitability in patients with ALS [5]: decreased lower motor neuron hyperexcitability
CN[C@@H]1Cc2cccc3[nH]c(=O)n(c23)C1 [sumanirole] |  |  | SOD1(A4V) motor neuron excitability (SOD1(A4V) motor neurons [2]): decreased SOD1(A4V) motor neuron excitability; membrane potential change (SOD1(A4V) motor neurons [6]; patch clamp, accompanying the decrease in firing): slight hyperpolarization; firing frequency (SOD1(A4V) motor neurons [6]; patch clamp, sumanirole 10 μM perfusion, control neurons): decrease in firing frequency; reduced excitability in DRD2 knockdown motor neurons (SOD1(A4V) motor neurons [6]; shRNA-mediated DRD2 knockdown, sumanirole 10 μM): insensitive; Ki (DRD2): 2 nM; Ki (DRD3): 1940 nM
